# Test results from the NIST ThermoML archive (doi:10.1016/j.jct.2018.11.010).
# ± gives the expanded uncertainty stated by the source.
# Assay: xn = mol fraction of the nth substance listed
# Settings: Liquid, Vibrating tube method
smiles,measurement,setting,value
CCCCCCCO [heptan-1-ol] + CCCCOCCCC,mass density,"313.15 K, 50000 kPa, x2 = 0",837.2 ± 1.1 kg/m3
same,mass density,"313.15 K, 50000 kPa, x2 = 0.1488",829.7 ± 1.1 kg/m3
same,mass density,"313.15 K, 50000 kPa, x2 = 0.3201",821.1 ± 1 kg/m3
same,mass density,"313.15 K, 50000 kPa, x2 = 0.4944",812.9 ± 1 kg/m3
same,mass density,"313.15 K, 50000 kPa, x2 = 0.7014",803 ± 0.9 kg/m3
same,mass density,"313.15 K, 50000 kPa, x2 = 0.8534",796.3 ± 0.9 kg/m3
same,mass density,"313.15 K, 55000 kPa, x2 = 0",839.7 ± 1.2 kg/m3
same,mass density,"313.15 K, 55000 kPa, x2 = 0.1488",832.3 ± 1.1 kg/m3
same,mass density,"313.15 K, 55000 kPa, x2 = 0.3201",823.8 ± 1 kg/m3
same,mass density,"313.15 K, 55000 kPa, x2 = 0.4944",815.7 ± 1 kg/m3
same,mass density,"313.15 K, 55000 kPa, x2 = 0.7014",805.9 ± 1 kg/m3
same,mass density,"313.15 K, 55000 kPa, x2 = 0.8534",799.3 ± 0.9 kg/m3
same,mass density,"313.15 K, 60000 kPa, x2 = 0",842.1 ± 1.2 kg/m3
same,mass density,"313.15 K, 60000 kPa, x2 = 0.1488",834.8 ± 1.1 kg/m3
same,mass density,"313.15 K, 60000 kPa, x2 = 0.3201",826.4 ± 1.1 kg/m3
same,mass density,"313.15 K, 60000 kPa, x2 = 0.4944",818.4 ± 1 kg/m3
same,mass density,"313.15 K, 60000 kPa, x2 = 0.7014",808.7 ± 1 kg/m3
same,mass density,"313.15 K, 60000 kPa, x2 = 0.8534",802.2 ± 0.9 kg/m3
same,mass density,"313.15 K, 65000 kPa, x2 = 0",844.4 ± 1.2 kg/m3
same,mass density,"313.15 K, 65000 kPa, x2 = 0.1488",837.2 ± 1.1 kg/m3
same,mass density,"313.15 K, 65000 kPa, x2 = 0.3201",828.9 ± 1.1 kg/m3
same,mass density,"313.15 K, 65000 kPa, x2 = 0.4944",821 ± 1 kg/m3
same,mass density,"313.15 K, 65000 kPa, x2 = 0.7014",811.5 ± 1 kg/m3
same,mass density,"313.15 K, 65000 kPa, x2 = 0.8534",804.9 ± 1 kg/m3
same,mass density,"313.15 K, 70000 kPa, x2 = 0",846.7 ± 1.2 kg/m3
same,mass density,"313.15 K, 70000 kPa, x2 = 0.1488",839.6 ± 1.2 kg/m3
same,mass density,"313.15 K, 70000 kPa, x2 = 0.3201",831.3 ± 1.1 kg/m3
same,mass density,"313.15 K, 70000 kPa, x2 = 0.4944",823.5 ± 1 kg/m3
same,mass density,"313.15 K, 70000 kPa, x2 = 0.7014",814.1 ± 1 kg/m3
same,mass density,"313.15 K, 70000 kPa, x2 = 0.8534",807.7 ± 1 kg/m3
same,mass density,"313.15 K, 80000 kPa, x2 = 0",851.1 ± 1.3 kg/m3
same,mass density,"313.15 K, 80000 kPa, x2 = 0.1488",844 ± 1.2 kg/m3
same,mass density,"313.15 K, 80000 kPa, x2 = 0.3201",836 ± 1.1 kg/m3
same,mass density,"313.15 K, 80000 kPa, x2 = 0.4944",828.4 ± 1.1 kg/m3
same,mass density,"313.15 K, 80000 kPa, x2 = 0.7014",819.1 ± 1 kg/m3
same,mass density,"313.15 K, 80000 kPa, x2 = 0.8534",812.9 ± 1 kg/m3
same,mass density,"313.15 K, 90000 kPa, x2 = 0",855.3 ± 1.3 kg/m3
same,mass density,"313.15 K, 90000 kPa, x2 = 0.1488",848.4 ± 1.2 kg/m3
same,mass density,"313.15 K, 90000 kPa, x2 = 0.3201",840.6 ± 1.2 kg/m3
same,mass density,"313.15 K, 90000 kPa, x2 = 0.4944",833.2 ± 1.1 kg/m3
same,mass density,"313.15 K, 90000 kPa, x2 = 0.7014",824 ± 1.1 kg/m3
same,mass density,"313.15 K, 90000 kPa, x2 = 0.8534",817.9 ± 1.1 kg/m3
same,mass density,"313.15 K, 100000 kPa, x2 = 0",859.3 ± 1.3 kg/m3
same,mass density,"313.15 K, 100000 kPa, x2 = 0.1488",852.5 ± 1.3 kg/m3
same,mass density,"313.15 K, 100000 kPa, x2 = 0.3201",844.8 ± 1.2 kg/m3
same,mass density,"313.15 K, 100000 kPa, x2 = 0.4944",837.5 ± 1.2 kg/m3
same,mass density,"313.15 K, 100000 kPa, x2 = 0.7014",828.7 ± 1.1 kg/m3
same,mass density,"313.15 K, 100000 kPa, x2 = 0.8534",822.6 ± 1.1 kg/m3
same,mass density,"313.15 K, 110000 kPa, x2 = 0",863.2 ± 1.4 kg/m3
same,mass density,"313.15 K, 110000 kPa, x2 = 0.1488",856.6 ± 1.3 kg/m3
same,mass density,"313.15 K, 110000 kPa, x2 = 0.3201",849.1 ± 1.2 kg/m3
same,mass density,"313.15 K, 110000 kPa, x2 = 0.4944",841.8 ± 1.2 kg/m3
same,mass density,"313.15 K, 110000 kPa, x2 = 0.7014",833.2 ± 1.1 kg/m3
same,mass density,"313.15 K, 110000 kPa, x2 = 0.8534",827.2 ± 1.1 kg/m3
same,mass density,"313.15 K, 120000 kPa, x2 = 0",867 ± 1.4 kg/m3
same,mass density,"313.15 K, 120000 kPa, x2 = 0.1488",860.4 ± 1.3 kg/m3
same,mass density,"313.15 K, 120000 kPa, x2 = 0.3201",853 ± 1.3 kg/m3
same,mass density,"313.15 K, 120000 kPa, x2 = 0.4944",845.9 ± 1.2 kg/m3
same,mass density,"313.15 K, 120000 kPa, x2 = 0.7014",837.3 ± 1.2 kg/m3
same,mass density,"313.15 K, 120000 kPa, x2 = 0.8534",831.5 ± 1.2 kg/m3
same,mass density,"313.15 K, 130000 kPa, x2 = 0",870.6 ± 1.4 kg/m3
same,mass density,"313.15 K, 130000 kPa, x2 = 0.1488",864.2 ± 1.4 kg/m3
same,mass density,"313.15 K, 130000 kPa, x2 = 0.3201",856.9 ± 1.3 kg/m3
same,mass density,"313.15 K, 130000 kPa, x2 = 0.4944",849.9 ± 1.2 kg/m3
same,mass density,"313.15 K, 130000 kPa, x2 = 0.7014",841.4 ± 1.2 kg/m3
same,mass density,"313.15 K, 130000 kPa, x2 = 0.8534",835.7 ± 1.2 kg/m3
same,mass density,"313.15 K, 140000 kPa, x2 = 0",874.2 ± 1.4 kg/m3
same,mass density,"313.15 K, 140000 kPa, x2 = 0.1488",867.8 ± 1.4 kg/m3
same,mass density,"313.15 K, 140000 kPa, x2 = 0.3201",860.6 ± 1.3 kg/m3
same,mass density,"313.15 K, 140000 kPa, x2 = 0.4944",853.7 ± 1.3 kg/m3
same,mass density,"313.15 K, 140000 kPa, x2 = 0.7014",845.4 ± 1.2 kg/m3
same,mass density,"313.15 K, 140000 kPa, x2 = 0.8534",839.8 ± 1.2 kg/m3
same,mass density,"333.15 K, 100 kPa, x2 = 0",793.3 ± 0.9 kg/m3
same,mass density,"333.15 K, 100 kPa, x2 = 0.1488",783.8 ± 0.9 kg/m3
same,mass density,"333.15 K, 100 kPa, x2 = 0.3201",772.9 ± 0.8 kg/m3
same,mass density,"333.15 K, 100 kPa, x2 = 0.4944",762.5 ± 0.8 kg/m3
same,mass density,"333.15 K, 100 kPa, x2 = 0.7014",749.9 ± 0.8 kg/m3
same,mass density,"333.15 K, 100 kPa, x2 = 0.8534",741.3 ± 0.8 kg/m3
same,mass density,"333.15 K, 1000 kPa, x2 = 0",794 ± 0.9 kg/m3
same,mass density,"333.15 K, 1000 kPa, x2 = 0.1488",784.6 ± 0.9 kg/m3
same,mass density,"333.15 K, 1000 kPa, x2 = 0.3201",773.7 ± 0.8 kg/m3
same,mass density,"333.15 K, 1000 kPa, x2 = 0.4944",763.4 ± 0.8 kg/m3
same,mass density,"333.15 K, 1000 kPa, x2 = 0.7014",750.8 ± 0.8 kg/m3
same,mass density,"333.15 K, 1000 kPa, x2 = 0.8534",742.3 ± 0.8 kg/m3
same,mass density,"333.15 K, 5000 kPa, x2 = 0",797.1 ± 0.9 kg/m3
same,mass density,"333.15 K, 5000 kPa, x2 = 0.1488",787.8 ± 0.9 kg/m3
same,mass density,"333.15 K, 5000 kPa, x2 = 0.3201",777.2 ± 0.9 kg/m3
same,mass density,"333.15 K, 5000 kPa, x2 = 0.4944",767.1 ± 0.8 kg/m3
same,mass density,"333.15 K, 5000 kPa, x2 = 0.7014",754.8 ± 0.8 kg/m3
same,mass density,"333.15 K, 5000 kPa, x2 = 0.8534",746.5 ± 0.8 kg/m3
same,mass density,"333.15 K, 10000 kPa, x2 = 0",800.7 ± 1 kg/m3
same,mass density,"333.15 K, 10000 kPa, x2 = 0.1488",791.7 ± 0.9 kg/m3
same,mass density,"333.15 K, 10000 kPa, x2 = 0.3201",781.4 ± 0.9 kg/m3
same,mass density,"333.15 K, 10000 kPa, x2 = 0.4944",771.5 ± 0.8 kg/m3
same,mass density,"333.15 K, 10000 kPa, x2 = 0.7014",759.6 ± 0.8 kg/m3
same,mass density,"333.15 K, 10000 kPa, x2 = 0.8534",751.4 ± 0.8 kg/m3
same,mass density,"333.15 K, 15000 kPa, x2 = 0",804.3 ± 1 kg/m3
same,mass density,"333.15 K, 15000 kPa, x2 = 0.1488",795.4 ± 0.9 kg/m3
same,mass density,"333.15 K, 15000 kPa, x2 = 0.3201",785.3 ± 0.9 kg/m3
same,mass density,"333.15 K, 15000 kPa, x2 = 0.4944",775.8 ± 0.9 kg/m3
same,mass density,"333.15 K, 15000 kPa, x2 = 0.7014",764.1 ± 0.8 kg/m3
same,mass density,"333.15 K, 15000 kPa, x2 = 0.8534",756.1 ± 0.8 kg/m3
